# Read-outs that look alike come from different tables or passages of the source. Where a SMILES comes first, the peptide text is derived from it. [ ]: non-standard residue; d: D form. The star is where a group is joined. X1 = O=C(O)c1cc(NC(=S)*)ccc1C1c2ccc(O)cc2Oc2cc(O)ccc21; 2Nal = N[C@@H](Cc1ccc2ccccc2c1)C(=O)O; Bta = N[C@@H](Cc1csc2ccccc12)C(=O)O; Pen = CC(C)(S)[C@H](N)C(=O)O; Tle = CC(C)(C)[C@H](N)C(=O)O; Pip = O=C(O)[C@@H]1CCCCN1; AEEA = NCCOCCOCC(=O)O
# Key:
# NHERF1-PDZ1 (N1P1) = molecular target: T1, NHERF1-PDZ1 (N1P1) (Homo sapiens, UniProt O14745); assay: Direct fluorescence polarization binding of FITC-labeled peptide
# T1 sequence (O14745 14-94 limits assumed): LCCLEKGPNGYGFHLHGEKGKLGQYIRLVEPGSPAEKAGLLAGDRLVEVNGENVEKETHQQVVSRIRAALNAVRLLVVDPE
# Procedure: (§1) Binding Affinity and Selectivity. The potency and selectivity of inhibitor 29 was first assessed by comparing its binding affinity to the four PDZ domains of CAL, NHERF1, and NHERF2, which are involved in the trafficking of CFTR to and from the plasma membrane. Peptides were labeled with FITC at the N-terminus through a miniPEG linker and tested for binding to various PDZ domains by fluorescence polarization (FP). FITC-labeled peptide (50 nM) was incubated with varying concentrations of PDZ domain in PBS (pH 7.4) containing 0.01% Triton X-100 and 2 mM TCEP for 1 h at room temperature. After 1 h, 20 μL of each sample was pipetted into 384-well black-on-black microplates and fluorescence polarization was measured by using a TECAN Infinite M1000 plate reader. Data was processed using GraphPad PRISM ver. 8.0.
# NHERF2-PDZ1 (N2P1) = molecular target: T2, NHERF2-PDZ1 (N2P1) (Homo sapiens, UniProt Q15599); assay: as above; details: 50 nM FITC-labeled peptide, FP
# T2 construct: PDZ1 (N2P1), and NHERF2-PDZ2 domains (N2P2)
# T2 sequence (Q15599 11-90 limits assumed): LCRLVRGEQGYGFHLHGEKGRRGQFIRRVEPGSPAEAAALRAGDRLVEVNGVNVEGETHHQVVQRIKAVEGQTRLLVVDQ
# Procedure: as §1
# NHERF2-PDZ2 (N2P2) = molecular target: T3, NHERF2-PDZ2 (N2P2) (Homo sapiens, UniProt Q15599); assay: as above; details: 50 nM FITC-labeled peptide, FP
# T3 construct: PDZ1 (N2P1), and NHERF2-PDZ2 domains (N2P2)
# T3 sequence (Q15599 150-230 limits assumed): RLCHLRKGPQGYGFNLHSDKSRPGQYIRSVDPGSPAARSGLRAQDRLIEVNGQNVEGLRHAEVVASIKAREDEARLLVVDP
# Procedure: as §1
# [1] = molecular target: T4, CAL PDZ domain (CALP5-His) (Homo sapiens, UniProt Q9HD26); assay: FP-based competition assay, Condition B (probe FAM-[…]-OH); format: binding; details: for IC50: 500 nM CALP5-His, 5 mM DTT
# T4 construct: His
# Procedure: Serial dilutions of each competitor peptide were prepared in PBS and the incubation solution was added to each. The combined solutions were gently mixed for 1 h at RT after which 20 uL sample was pipetted into 384-well black-on-black microplates and fluorescence polarization was measured using a TECAN Infinite M1000 plate reader. Data was processed to determine IC50 using GraphPad PRISM ver. 6.0.
# [2] = molecular target: T4, CAL PDZ domain (CALP5-His); assay: Direct fluorescence polarization binding of labeled peptide, Condition C
# Procedure: Condition C (denoted with superscript ^C): 50 nM labeled peptide was incubated with 2 mM TCEP in PBS at pH 7.4 containing 0.01% Triton-X100. CALP5-His was serially diluted in PBS containing 0.01% Triton-X100 to which was then added the peptide and TCEP solution. This solution was mixed for 1 h at RT then 20 uL was pipetted into 384-well microplates and fluorescence polarization was measured using a TECAN Infinite M1000 plate reader. KD values were calculated using KaleidaGraph v. 3.6 using the equation: […]
# as §1
# HeLa cells [3] = assay: Cellular uptake efficiency by flow cytometry; format: cell-based; details: for Uptake (% rel.): HeLa cells, 5 μM, 2 h, relative to CPP9 (100%)
# Procedure: (§2) Cellular Uptake Efficiency: HeLa cells were seeded into 12-well cell-culture treated plates at a final density of 15×10^4 cells/well in DMEM supplemented with 10% FBS and 1% penicillin/streptomycin and incubated overnight at 37° ° C. and 5% CO2. After 24 h, the media was aspirated followed by washing the cells three times with warm DPBS. Peptides were diluted to a final concentration of 5 μM in DMEM containing 10% FBS with 1% penicillin/streptomycin, added to each well and then incubated for 2 h at 37° C. and 5% CO2. After 2 h, treatment media was aspirated and the cells were washed three times with ice-cold DPBS. Cells were removed from the plate via treatment with trypsin/EDTA and then harvested in ice-cold DPBS followed by centrifugation at ×300 RCF, 4° C. for 5 min. Cells were resuspended in DPBS and quantified using a BD Biosciences LSR II flow cytometer and gated using FlowJo. Values for uptake are provided as a percentage relative to positive control, CPP9 ([cyclo-fΦRrRrQ]-miniPEG-K[NF]).
# as §2, with “Cellular Uptake. HeLa cells” for “Cellular Uptake Efficiency: HeLa cells”, “at 37° C. and” for “at 37° ° C. and”, “37° C. with 5% CO2.” for “37° C. and 5% CO2.”, “centrifugation at 300 g, 4° C.” for “centrifugation at ×300 RCF, 4° C.”, “control, CPP9 ([cyclo-fΦRrRrQ]-miniPEG-K[NF]), which has a 62% cytosolic entry efficiency. PGD97 entered HeLa cells at 60% efficiency relative to CPP9, corresponding to an absolute cytosolic entry efficiency of ˜36% (FIG. 9).” for “control, CPP9 ([cyclo-fΦRrRrQ]-miniPEG-K[NF]).”
# [4] = Preliminary tests of cellular activity; format: cell-based; details: 50 nM concentration
# HCT116 cell spheroids = assay: Intracellular stability by MALDI imaging; format: in vitro ADME; details: after 4 or 24 h incubation with PGD97
# Procedure: Intracellular Stability. PGD97 ([…]) was added to HCT116 cell spheroids in RPMI-1640 medium supplemented with 10% FBS and 1% penicillin/streptomycin and incubated for 4 or 24 h. After incubation, spheroids were washed 3× with DPBS, quickly frozen, embedded in a solid support, and cryo-sectioned. Prior to analysis, sinapinic acid was sublimed onto individual slides. The sample was imaged using a Bruker ultrafleXtreme MALDI-TOF-TOF and analyzed for the presence of proteolytic degradation fragments. Heatmaps, scaled relative to the most intense signal, were generated for the intact peptide (both 29 and 32) as well as ˜20 potential proteolytic fragments at each time point. […] A degradation fragment (#1) corresponding to proteolytic cleavage between Thr and Arg (FIG. 8B) was observed, but none of the other potential degradation products were observed. […] Most importantly, significant concentrations of intact peptide 29 was still present inside the cells after 24 h.
# LC3-II = assay: Autophagy in macrophages, western blotting for LC3-II; format: cell-based, human; details: 10 μM, ΔF508 CFTR macrophages
# Procedure: Effect on Autophagy in Macrophage. Human primary ΔF508 CFTR macrophages were incubated with 10 μM VX809 (n=1) or 100 nM PGD97 (n=2) for 48 h in complete growth medium supplemented with 10% FBS and 1% penicillin/streptomycin at 37° C. Induction of autophagy was determined via western blotting for autophagy-associated protein LC3-II.
# [5] = HCT116 cell spheroids in RPMI-1640 medium supplemented with 10% FBS and 1% penicillin/streptomycin; details: up to 24 h
# HeLa cells [6] = details: positive control value; cited from earlier work
# [7] = 50 nM FITC-labeled peptide, FP, read-out: KD (nM) N1P1
# [8] = Condition B (superscript b): 100 nM probe FAM-[…]-OH
# [9] = 50 nM FITC-labeled peptide, FP, read-out: KD (nM) CALP
# [10] = Condition B (superscript b): 100 nM probe FAM-ANSRWPTSII-OH
# [11] = FITC-labeled peptide, FP, read-out: Affinity (KD)
molecule,measurement,setting,value
"CC(=O)N[C@@H](CS)C(=O)N[C@H](CCCNC(=N)N)C(=O)N[C@@H](CCCNC(=N)N)C(=O)N[C@@H](CCCNC(=N)N)C(=O)N[C@@H](Cc1ccc2ccccc2c1)C(=O)N[C@@H](Cc1c[nH]c2ccccc12)C(=O)N[C@@H](CCC(N)=O)C(=O)N[C@H](C(=O)N[C@H](C(=O)N[C@@H](CCCNC(=N)N)C(=O)N[C@H](C(=O)O)C(C)(C)C)[C@@H](C)O)C(C)(C)S [Compound 20, Ac-Cys-(D-Arg)-Arg-Arg-(2-Nal)-Trp-Gln-Pen-Thr-Arg-Tle-OH] (Ac-C[dR]RR[2Nal]WQ[Pen]TR[Tle]-OH)",Kd,NHERF1-PDZ1 (N1P1); [7],1640 ± 150 nM
same,Kd,NHERF2-PDZ1 (N2P1),2980 ± 150 nM
same,Kd,NHERF2-PDZ2 (N2P2),4970 ± 890 nM
same,IC50,[1]; [8],165 nM
same,Kd,[2]; [9],110 nM
same,Kd,"[2]; FITC-labeled peptide 20, FP, read-out: KD for CAL PDZ domain (FIG. 3A)",~50 nM
same,Uptake (% rel.),HeLa cells [3],28 ± 1%
"CC(=O)N[C@@H](CS)C(=O)N[C@H](CCCNC(=N)N)C(=O)N[C@H](CCCNC(=N)N)C(=O)N[C@@H](CCCNC(=N)N)C(=O)N[C@@H](Cc1ccc2ccccc2c1)C(=O)N[C@@H](Cc1c[nH]c2ccccc12)C(=O)N[C@@H](CCC(N)=O)C(=O)N[C@H](C(=O)N[C@H](C(=O)N[C@@H](CCCNC(=N)N)C(=O)N[C@H](C(=O)O)C(C)(C)C)[C@@H](C)O)C(C)(C)S [Compound 21, Ac-Cys-(D-Arg)-(D-Arg)-Arg-(2-Nal)-Trp-Gln-Pen-Thr-Arg-Tle-OH] (Ac-C[dR][dR]R[2Nal]WQ[Pen]TR[Tle]-OH)",IC50,[1]; [10],270 nM
same,Uptake (% rel.),HeLa cells [3],23 ± 4%
"CC(=O)N[C@@H](CS)C(=O)N[C@H](CCCNC(=N)N)C(=O)N[C@@H](CCCNC(=N)N)C(=O)N[C@@H](CCCNC(=N)N)C(=O)N[C@@H](Cc1ccc2ccccc2c1)C(=O)N[C@@H](Cc1c[nH]c2ccccc12)C(=O)N[C@H](C(=O)N[C@H](C(=O)N[C@H](C(=O)N[C@@H](CCCNC(=N)N)C(=O)N[C@H](C(=O)O)C(C)(C)C)[C@@H](C)O)C(C)(C)C)C(C)(C)S [Compound 24, Ac-Cys-(D-Arg)-Arg-Arg-(2-Nal)-Trp-Pen-Tle-Thr-Arg-Tle-OH] (Ac-C[dR]RR[2Nal]W[Pen][Tle]TR[Tle]-OH)",IC50,[1]; [10],380 nM
same,decrease of CAL binding,[1]; relative to peptide 22,~2 fold
same,Uptake (% rel.),HeLa cells [3],92%
same,"cell-permeability, fold higher",HeLa cells [3]; relative to peptide 22,4 fold
"CC(=O)N[C@@H](CS)C(=O)N[C@H](CCCNC(=N)N)C(=O)N[C@@H](CCCNC(=N)N)C(=O)N[C@@H](CCCNC(=N)N)C(=O)N[C@@H](Cc1ccc2ccccc2c1)C(=O)N[C@@H](Cc1csc2ccccc12)C(=O)N[C@H](C(=O)N[C@H](C(=O)N[C@H](C(=O)N[C@@H](CCCNC(=N)N)C(=O)N[C@H](C(=O)O)C(C)(C)C)[C@@H](C)O)C(C)(C)C)C(C)(C)S [Compound 25, Ac-Cys-(D-Arg)-Arg-Arg-(2-Nal)-(Bta)-Pen-Tle-Thr-Arg-Tle-OH] (Ac-C[dR]RR[2Nal][Bta][Pen][Tle]TR[Tle]-OH)",cellular activity,[4],robust cellular activity
same,IC50,[1]; [8],235 nM
same,"potency in CAL binding, fold more potent",[1]; relative to peptide 24,1.5 fold
same,improvement in cell-permeability,"HeLa cells [3]; Bta for Trp at P-5, relative to peptide 24",> 5 fold
same,Uptake (% rel.),HeLa cells [3],518 ± 74%
same,"cell-permeability, fold better",HeLa cells [3]; relative to CPP9,5 fold
same,"cell-permeability, fold better",HeLa cells [3]; relative to peptide 20,~20 fold
"CC(=O)N[C@@H](CS)C(=O)N[C@H](CCCNC(=N)N)C(=O)N[C@@H](CCCNC(=N)N)C(=O)N[C@@H](CCCNC(=N)N)C(=O)N[C@@H](Cc1ccc2ccccc2c1)C(=O)N[C@@H](Cc1csc2ccccc12)C(=O)N1CCCC[C@H]1C(=O)N[C@H](C(=O)N[C@H](C(=O)N[C@@H](CCCNC(=N)N)C(=O)N[C@H](C(=O)O)C(C)(C)C)[C@@H](C)O)C(C)(C)S [Compound 29, Ac-Cys-(D-Arg)-Arg-Arg-Nal-Bta-Pip-Pen-Thr-Arg-Tle-OH] (Ac-C[dR]RR[2Nal][Bta][Pip][Pen]TR[Tle]-OH)",Kd,"NHERF1-PDZ1 (N1P1); range over N1P1, N2P1 and N2P2, read-out: KD values for NHERF1/2 PDZ domains",780 to 7480 nM
same,Kd,[2]; [9],6 ± 3 nM
same,Kd,[2]; [11],6 nM
same,improvement of CAL PDZ-binding affinity,[2]; Pip for Pro,~15 fold
same,selectivity for CAL vs NHERF PDZ domains,"[2]; ratio of KD values, NHERF1/2 PDZ domains vs CAL PDZ",≥ 130 fold
same,presence of intact peptide in spheroids,HCT116 cell spheroids,High concentrations
"C[C@@H](O)[C@H](NC(=O)[C@@H](NC(=O)[C@@H]1CCCCN1C(=O)[C@H](Cc1csc2ccccc12)NC(=O)[C@H](Cc1ccc2ccccc2c1)NC(=O)[C@H](CCCNC(=N)N)NC(=O)[C@H](CCCNC(=N)N)NC(=O)[C@@H](CCCNC(=N)N)NC(=O)[C@H](CS)NC(=O)COCCOCCNC(=S)Nc1ccc(C2c3ccc(O)cc3Oc3cc(O)ccc32)c(C(=O)O)c1)C(C)(C)S)C(=O)N[C@@H](CCCNC(=N)N)C(=O)N[C@H](C(=O)O)C(C)(C)C [Compound 29-FITC, FITC-miniPEG-Cys-(D-Arg)-Arg-Arg-Nal-Bta-Pip-Pen-Thr-Arg-Tle-OH] ({X1-AEEA}-C[dR]RR[2Nal][Bta][Pip][Pen]TR[Tle]-OH)",Kd,NHERF1-PDZ1 (N1P1); [7],780 ± 10 nM
same,Kd,NHERF2-PDZ1 (N2P1),1370 ± 380 nM
same,Kd,NHERF2-PDZ2 (N2P2),7480 ± 580 nM
same,Kd,[2]; [9],6 ± 3 nM
same,Kd,[2]; [11],6 ± 3 nM
"CC(C)(CO)c1cc2cc(NC(=O)C3(c4ccc5c(c4)OC(F)(F)O5)CC3)c(F)cc2n1C[C@@H](O)CO [VX661, Tezacaftor, reference compound]",LC3-II protein levels,LC3-II,also effective
Ac-Cys-(D-Arg)-Arg-Arg-Nal-Bta-Pip-Pen-Thr-Arg-Tle-OH,cleaved bond,[5],Thr-Arg
[cyclo-fΦRrRrQ]-miniPEG-K[NF] [CPP9],cytosolic entry efficiency,HeLa cells [6],62%

# — patent publication US12496350B2 (Ohio State Innovation Foundation, priority 2018, dated 2025)
